Measurements reported in US20060009432A1, “Use of neurosteroids to treat neuropathic pain” (priority 2004, published 2006).

Assays:
[1] = system: L5/L6 spinal nerve ligation (SNL) rats; assay: Tactile allodynia (von Frey) in spinal nerve ligation model; assay type: in vivo, rat
Description: (§1) (A) L5/L6 spinal nerve ligation (SNL) was performed as described by Kim and Chung (Pain, 50,355-363(1992)). Animals (mice or rats) were anesthetized with halothane. An incision was made lateral to the lumbar spine. The right L5 and L6 spinal nerves were isolated and tightly ligated distal to the dorsal root ganglion. The incision was closed, and animals were allowed to recover for 10 days. Sham-operated animals were prepared in an identical fashion except that the spinal nerves were not ligated.
The protocol was repeated until three changes in behavior were determined. The maximal cut-off size values used were 15 g for rats and 3.5 g for mice. The 50% paw withdrawal threshold was determined as 10Xf+kδ/10,000, where Xf=the value of the last von Frey filament used, k=Dixon value for the positive/negative pattern, and δ=the logarithmic difference between stimuli.
Tactile allodynia response was measured 15, 30, 45, 60, 90 and 120 minutes after i.p. administration of ganaxolone (at 1 mg/kg, 3 mg/kg, 6 mg/kg or 10 mg/kg). Table 2 provides the resulting measurement of tactile allodynia response in groups of five rats per dosage level.

SNL rats = assay: Thermal withdrawal (Hargreaves) in spinal nerve ligation model; assay type: in vivo, rat
Description: as §1
(B) The method of Hargreaves et al. (Pain, 32, 77-88 (1988)) was used to measure the thermal withdrawal latency in SNL rats. Animals were acclimated within Plexiglas enclosures on a clear glass plate maintained at 30° C. A radiant heat source (high-intensity projector lamp) was focused onto the plantar surface of the paw. When the paw was withdrawn, a motion detector halted the stimulus and a timer. A maximal cut-off of 40 sec for rats and 30 sec for mice was used to prevent tissue damage. Differences in responses between groups were tested by using the standard ANOVA statistical test followed by post hoc testing with Student's t test with Bonferroni's correction. Significance was defined as P<0.05.
Thermal withdrawal response was measured 15, 30, 45, 60, 90 and 120 minutes after i.p. administration of ganaxolone (at 1 mg/kg, 3 mg/kg, 6 mg/kg or 10 mg/kg). Table 3 provides the resulting measurement of thermal withdrawal in groups of five rats per dosage level.

## CC(=O)[C@H]1CC[C@H]2[C@@H]3CC[C@H]4C[C@](C)(O)CC[C@]4(C)[C@H]3CC[C@]12C [ganaxolone, 3α-hydroxy-3β-methyl-5α-pregnan-20-one]
[1]; 3 mg/kg i.p., 15 min, SNL rats
  % Activity ± s.e.m. (tactile allodynia): 9.69 ± 4.56%
[1]; 3 mg/kg i.p., 30 min, SNL rats
  % Activity ± s.e.m. (tactile allodynia): 13.76 ± 6.54%
[1]; 3 mg/kg i.p., 45 min, SNL rats
  % Activity ± s.e.m. (tactile allodynia): 14.02 ± 5.14%
[1]; 3 mg/kg i.p., 60 min, SNL rats
  % Activity ± s.e.m. (tactile allodynia): 11.56 ± 3.01%
[1]; 3 mg/kg i.p., 90 min, SNL rats
  % Activity ± s.e.m. (tactile allodynia): 9.19 ± 2.67%
[1]; 3 mg/kg i.p., 120 min, SNL rats
  % Activity ± s.e.m. (tactile allodynia): 9.64 ± 1.63%
[1]; 6 mg/kg i.p., 15 min, SNL rats
  % Activity ± s.e.m. (tactile allodynia): 26.79 ± 9.34%
[1]; 6 mg/kg i.p., 30 min, SNL rats
  % Activity ± s.e.m. (tactile allodynia): 30.85 ± 6.77%
[1]; 6 mg/kg i.p., 45 min, SNL rats
  % Activity ± s.e.m. (tactile allodynia): 47.30 ± 14.99%
[1]; 6 mg/kg i.p., 60 min, SNL rats
  % Activity ± s.e.m. (tactile allodynia): 34.17 ± 15.78%
[1]; 6 mg/kg i.p., 90 min, SNL rats
  % Activity ± s.e.m. (tactile allodynia): 26.91 ± 15.45%
[1]; 6 mg/kg i.p., 120 min, SNL rats
  % Activity ± s.e.m. (tactile allodynia): 9.32 ± 2.85%
[1]; 10 mg/kg i.p., 15 min, SNL rats
  % Activity ± s.e.m. (tactile allodynia): 47.91 ± 21.86%
[1]; 10 mg/kg i.p., 30 min, SNL rats
  % Activity ± s.e.m. (tactile allodynia): 79.27 ± 18.71%
[1]; 10 mg/kg i.p., 45 min, SNL rats
  % Activity ± s.e.m. (tactile allodynia): 70.60 ± 18.42%
[1]; 10 mg/kg i.p., 60 min, SNL rats
  % Activity ± s.e.m. (tactile allodynia): 64.61 ± 18.63%
[1]; 10 mg/kg i.p., 90 min, SNL rats
  % Activity ± s.e.m. (tactile allodynia): 24.81 ± 9.53%
[1]; 10 mg/kg i.p., 120 min, SNL rats
  % Activity ± s.e.m. (tactile allodynia): 4.38 ± 1.81%
[1]; 10 mg/kg i.p., SNL rats, tactile allodynia test
  Sedation: sedated four of the five rats for about one hour
[1]; summary, SNL animals
  Effect on % Activity: increases the % Activity
SNL rats; 1 mg/kg i.p., 15 min
  % Activity ± s.e.m. (thermal withdrawal): 24.59 ± 14.93%
SNL rats; 1 mg/kg i.p., 30 min
  % Activity ± s.e.m. (thermal withdrawal): 27.99 ± 17.71%
SNL rats; 1 mg/kg i.p., 45 min
  % Activity ± s.e.m. (thermal withdrawal): 3.98 ± 2.63%
SNL rats; 1 mg/kg i.p., 60 min
  % Activity ± s.e.m. (thermal withdrawal): 12.62 ± 8.69%
SNL rats; 1 mg/kg i.p., 90 min
  % Activity ± s.e.m. (thermal withdrawal): 17.40 ± 8.65%
SNL rats; 1 mg/kg i.p., 120 min
  % Activity ± s.e.m. (thermal withdrawal): 12.13 ± 9.25%
SNL rats; 3 mg/kg i.p., 15 min
  % Activity ± s.e.m. (thermal withdrawal): 37.15 ± 18.52%
SNL rats; 3 mg/kg i.p., 30 min
  % Activity ± s.e.m. (thermal withdrawal): 48.03 ± 22.45%
SNL rats; 3 mg/kg i.p., 45 min
  % Activity ± s.e.m. (thermal withdrawal): 19.84 ± 12.97%
SNL rats; 3 mg/kg i.p., 60 min
  % Activity ± s.e.m. (thermal withdrawal): 14.25 ± 10.87%
SNL rats; 3 mg/kg i.p., 90 min
  % Activity ± s.e.m. (thermal withdrawal): 4.18 ± 4.18%
SNL rats; 3 mg/kg i.p., 120 min
  % Activity ± s.e.m. (thermal withdrawal): 16.57 ± 11.76%
SNL rats; 6 mg/kg i.p., 15 min
  % Activity ± s.e.m. (thermal withdrawal): 79.03 ± 10.50%
SNL rats; 6 mg/kg i.p., 30 min
  % Activity ± s.e.m. (thermal withdrawal): 70.78 ± 11.53%
SNL rats; 6 mg/kg i.p., 45 min
  % Activity ± s.e.m. (thermal withdrawal): 43.72 ± 10.03%
SNL rats; 6 mg/kg i.p., 60 min
  % Activity ± s.e.m. (thermal withdrawal): 60.94 ± 10.27%
SNL rats; 6 mg/kg i.p., 90 min
  % Activity ± s.e.m. (thermal withdrawal): 42.83 ± 10.41%
SNL rats; 6 mg/kg i.p., 120 min
  % Activity ± s.e.m. (thermal withdrawal): 10.88 ± 6.34%
SNL rats; 10 mg/kg i.p., 15 min
  % Activity ± s.e.m. (thermal withdrawal): 70.07 ± 18.30%
SNL rats; 10 mg/kg i.p., 30 min
  % Activity ± s.e.m. (thermal withdrawal): 46.91 ± 14.25%
SNL rats; 10 mg/kg i.p., 45 min
  % Activity ± s.e.m. (thermal withdrawal): 47.36 ± 12.97%
SNL rats; 10 mg/kg i.p., 60 min
  % Activity ± s.e.m. (thermal withdrawal): 41.45 ± 10.90%
SNL rats; 10 mg/kg i.p., 90 min
  % Activity ± s.e.m. (thermal withdrawal): 33.58 ± 7.53%
SNL rats; 10 mg/kg i.p., 120 min
  % Activity ± s.e.m. (thermal withdrawal): 23.87 ± 4.35%
SNL rats; 10 mg/kg i.p., thermal withdrawal test
  Sedation: sedated four of the five rats for about one hour
